Test results: PubChem BioAssay (NCI)
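Each compound was tested at five concentrations against cells in 96-well plates for 48 hours. The concentration for full growth arrest is given as TGI.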

Assays:
Assay in all cases: NCI anticancer screen, dose series, 48 h
[1] = test system: MDA-N
[2] = test system: NCI-H522 lung
[3] = test system: SR leukemia
[4] = test system: IGROV1 ovarian
[5] = test system: MDA-MB-231 breast
[6] = test system: PC-3 prostate
[7] = test system: RPMI-8226 leukemia
[8] = test system: MCF7 breast
[9] = test system: UACC-257 melanoma
[10] = test system: LOX IMVI melanoma
[11] = test system: CAKI-1 renal
[12] = test system: SF-539 CNS
[13] = test system: OVCAR-5 ovarian
[14] = test system: HCT-116 colon
[15] = test system: COLO 205 colon
[16] = test system: U251 CNS
[17] = test system: OVCAR-8 ovarian
[18] = test system: OVCAR-4 ovarian
[19] = test system: RXF 393 renal
[20] = test system: HOP-92 NSCLC
[21] = test system: UACC-62 melanoma
[22] = test system: HT29 colon
[23] = test system: A498 renal
[24] = test system: ACHN renal
[25] = test system: SF-295 CNS
[26] = test system: SK-MEL-28 melanoma
[27] = test system: MOLT-4 leukemia
[28] = test system: TK-10 renal
[29] = test system: SNB-75 CNS
[30] = test system: MDA-MB-435
[31] = test system: A549 NSCLC
[32] = test system: NCI/ADR-RES ovarian
[33] = test system: SK-OV-3 ovarian
[34] = test system: SNB-19 CNS
[35] = test system: DU-145 prostate
[36] = test system: SK-MEL-5 melanoma
[37] = test system: 786-0 renal
[38] = test system: T-47D breast
[39] = test system: UO-31 renal
[40] = test system: KM12 colon
[41] = test system: SW-620 colon
[42] = test system: SK-MEL-2 melanoma
[43] = test system: CCRF-CEM leukemia
[44] = test system: SN12C renal
[45] = test system: HOP-62 NSCLC
[46] = test system: M14 melanoma
[47] = test system: NCI-H226 lung
[48] = test system: OVCAR-3 ovarian
[49] = test system: MALME-3M melanoma
[50] = test system: HL-60(TB) leukemia
[51] = test system: HS 578T breast
[52] = test system: NCI-H460 lung
[53] = test system: SF-268 CNS
[54] = test system: BT-549 breast
[55] = test system: HCT-15 colon
[56] = test system: EKVX NSCLC
[57] = test system: K-562 leukemia
[58] = test system: HCC-2998 colon
[59] = test system: NCI-H23 lung

Measured: TGI

O=C(O)C(O)C(O)C(=O)O (stereo unspecified)
> 100 µM: [1] | [2] | [3] | [4] | [5] | [6] | [7] | [8] | [9] | [10] | [11] | [12] | [13] | [14] | [15] | [16] | [17] | [18] | [19] | [20] | [21] | [22] | [23] | [24] | [25] | [26] | [27] | [28] | [29] | [30] | [31] | [32] | [33] | [34] | [35] | [36] | [37] | [38] | [39] | [40] | [41] | [42] | [43] | [44] | [45] | [46] | [47] | [48] | [49] | [50] | [51] | [52] | [53] | [54] | [55] | [56] | [57]

Nc1nc(Cl)c(N)c(NCC2(CO)CC2)n1
> 100 µM: [1] | [2] | [3] | [4] | [5] | [6] | [7] | [8] | [9] | [10] | [11] | [12] | [13] | [14] | [15] | [16] | [17] | [18] | [58] | [19] | [20] | [21] | [22] | [23] | [24] | [25] | [26] | [27] | [28] | [29] | [30] | [31] | [32] | [33] | [34] | [35] | [36] | [37] | [38] | [39] | [40] | [41] | [42] | [43] | [44] | [45] | [46] | [47] | [48] | [49] | [50] | [51] | [52] | [53] | [54] | [59] | [55] | [56] | [57]
